We go through 8 compounds from patent publication US20230286973A1, “PROTEIN SECRETION INHIBITORS” (KEZAR LIFE SCIENCES, priority 2020, published 2023).

Each structure is given as a SMILES string.

The subject of data set [1] is PD1-ss+10aa/Gaussia Luciferase. Kind of data set: Dox-Induced PD1-ss-Gluc Assay. Format: cell-based. Conditions: 24 hr Dox induction; 293FRT/TO cells; mean; read-out: 24 hr Dox Inducible PD1ssGluc 293FRT/TO: Mean IC50. In outline: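 The cell line was made by transfecting Flp-In 293 T-REx cells with a PD1 signal sequence+10aa–Gaussia luciferase fusion under T-REx control and selecting with hygromycin and blasticidin. Cells were seeded, and next day compound plus doxycycline was added at 37 °C, 5% CO2.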

The subject of data set [2] is TNFα-FL/Gaussia Luciferase. Kind of data set: Dox Induced TNFα-FL-Gluc Assay. The format is cell-based. As to conditions: for IC50: 24 hr Dox induction, 293FRT/TO cells, mean, read-out: 24 hr Dox Inducible TNFaFLGluc 293FRT/TO: Mean IC50; for 24 hr Dox Inducible TNFaFLGluc 293FRT/TO: TNF/PD1: ratio of TNFaFLGluc IC50 to PD1ssGluc IC50, '<=>' given where both are I.A. In outline:
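Cells are seeded one day ahead, then treated with compound plus doxycycline at 37 °C, 5% CO2. The stable Flp-In 293 T-REx line expresses full-length TNFα (amino acids 1-233) with Gaussia luciferase fused to its 3′ end, inducibly via T-REx.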

For data set [3], the system named is HER3-ss+4aa/Gaussia Luciferase. In words: Dox-Induced Her3-ss-Gluc Assay. The format is cell-based. As to conditions: 24 hr Dox induction; 293FRT/TO cells; mean; read-out: 24 hr Dox Inducible Her3(ss + 4)Gluc 293FRT/TO: Mean IC50. In outline: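 Expression of a Gaussia luciferase reporter carrying the HER3 signal sequence plus 4 amino acids is induced by doxycycline in stably transfected Flp-In 293 T-REx cells. Compounds are added with doxycycline at 37° C., 5% CO2. Undefined stereocentres denote stereoisomer mixtures.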

Data set [4] has as its system IL-2-FL/Gaussia Luciferase. In words: Dox Induced IL2-FL-Gluc Assay. Format: cell-based. As to conditions: for IC50: 24 hr Dox induction, 293FRT/TO cells, mean, read-out: 24 hr Dox Inducible IL2FLGluc 293FRT/TO: Mean IC50; for 24 hr Dox Inducible IL2FLGluc 293FRT/TO: IL2/PD1: ratio of IL2FLGluc IC50 to PD1ssGluc IC50, '<=>' given where both are I.A. Summed up:
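Reporter is Gaussia luciferase fused to the 3′ end of full-length IL-2 (aa 1-153), expressed from a doxycycline-inducible T-REx construct in stably selected Flp-In 293 cells. Compounds were co-added with doxycycline and incubated at 37° C, 5% CO2.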

Data set [5] deals with multiple myeloma cell line NCI-H929. Kind of data set: H929 Cell Viability Assay. The format is cell-based, human. As to conditions: Homo sapiens, NCI-H929, 48 h, NCI-H929 cells, Celltiter-Glo. In outline:
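Plate the myeloma cells in RPMI 1640 with 10% FBS, add serially diluted compound, incubate for 48 hours at 37° C, then add CellTiter-Glo and read luciferase signal.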

In data set [6] the test system is multiple myeloma cell line U266B1. In words: U266 Cell Viability Assay. Format: cell-based, human. Conditions: Homo sapiens, U-266, 48 h, U266B1 cells, Celltiter-Glo. Summed up: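 48 h treatment, 37° C./5% CO2, RPMI 1640 + 10% FBS; viability by CellTiter-Glo luminescence.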
Data set [7] can be described thus: Liver Microsome Stability Assay (rat). As to conditions: rat liver microsomes, with NADPH, 1.0 uM compound.
Procedure: (§1) Stability of a compound was assessed in the presence of liver microsomes from various sources—mouse, rat, monkey and human liver microsomes. 1.0 uM compound, 0.4% DMSO in 0.1 M Potassium Phosphate with 1.0 mg/mL liver microsomes, were incubated at 37° C. with or without 1 mM NADPH. The samples were quenched at 0, and 30 minutes.
A short description of data set [8]: Liver Microsome Stability Assay (mouse). As to conditions: mouse liver microsomes, with NADPH, 1.0 uM compound.
Procedure: as §1
Data set [9] in a line: Liver Microsome Stability Assay (human). Conditions: human liver microsomes, with NADPH, 1.0 uM compound.
Procedure: as §1
Data set [10] is described as follows: Liver Microsome Stability Assay (monkey). As to conditions: monkey liver microsomes, with NADPH, 1.0 uM compound.
Procedure: as §1

`N#CCCCCn1cccc1C(=O)Nc1nc([C@H]2CCCN2c2ccccc2)cs1` [Compound C1, (R)-1-(4-cyanobutyl)-N-(4-(1-phenylpyrrolidin-2-yl)thiazol-2-yl)-1H-pyrrole-2-carboxamide]: the IC50 was determined as 0.455 µM in data set [1], 10 µM in data set [2], 1.33 µM in [3] and 1.26 µM in [4]. In addition, in data set [2], the “24 hr Dox Inducible TNFaFLGluc 293FRT/TO: TNF/PD1” value amounted to 22.1. The “24 hr Dox Inducible IL2FLGluc 293FRT/TO: IL2/PD1” value in data set [4] was 2.8. Moreover, the figures for the concentration giving a half-maximal response (EC50) in data set [5] and in [6] were 24.1 µM and more than 25 µM, respectively. Besides, the “Liver Microsome Stability (Multiple Species): Rat - % Remaining after 30 min w/NADPH” value in [7] came to 7.64%. Further, the “Liver Microsome Stability (Multiple Species): Mouse - % Remaining after 30 min w/NADPH” value in [8] amounted to 23.2%. Moreover, the “Liver Microsome Stability (Multiple Species): Human - % Remaining after 30 min w/NADPH” value in data set [9] worked out at 29.3%. Also, the “Liver Microsome Stability (Multiple Species): Monkey - % Remaining after 30 min w/NADPH” value in data set [10] was found to be 0.35%.

As for `N#CCCCn1cccc1C(=O)Nc1nc([C@H]2CCCN2c2ccccc2)cs1` [Compound C2, (R)-1-(3-cyanopropyl)-N-(4-(1-phenylpyrrolidin-2-yl)thiazol-2-yl)-1H-pyrrole-2-carboxamide], the IC50 is 0.483 µM in data set [1], 9.74 µM in data set [2], 1.38 µM in [3] and 1.52 µM in data set [4]. Besides, the “24 hr Dox Inducible TNFaFLGluc 293FRT/TO: TNF/PD1” value in data set [2] is recorded as 20.2. Besides, in [4], the “24 hr Dox Inducible IL2FLGluc 293FRT/TO: IL2/PD1” value came to 3.1. The concentration for a half-maximal effect (EC50) in [5] and in data set [6] was more than 25 µM in each case. Also, the “Liver Microsome Stability (Multiple Species): Rat - % Remaining after 30 min w/NADPH” value in data set [7] came to 17.6%. The “Liver Microsome Stability (Multiple Species): Mouse - % Remaining after 30 min w/NADPH” value in data set [8] is given as 18%. The “Liver Microsome Stability (Multiple Species): Human - % Remaining after 30 min w/NADPH” value in [9] is on record as 33.9%. Moreover, in data set [10], the “Liver Microsome Stability (Multiple Species): Monkey - % Remaining after 30 min w/NADPH” value came out at 0.23%.

Consider `O=C(Nc1nc([C@H]2CCCN2c2ccccc2)cs1)c1cccn1CCC1CCOC1` (stereo partly drawn) [Compound C3, N-(4-((R)-1-phenylpyrrolidin-2-yl)thiazol-2-yl)-1-(2-(tetrahydrofuran-3-yl)ethyl)-1H-pyrrole-2-carboxamide], for which the IC50 in data set [1] is 1.11 µM; in [2], 15.1 µM; in [3], 2.27 µM; in [4], 3.04 µM. Further, the “24 hr Dox Inducible TNFaFLGluc 293FRT/TO: TNF/PD1” value in data set [2] is 13.5. Also, the “24 hr Dox Inducible IL2FLGluc 293FRT/TO: IL2/PD1” value in [4] amounted to 2.7. Moreover, the 50% effective concentration (EC50) in [5] is 16.3 µM; in data set [6] it was more than 25 µM. Moreover, the “Liver Microsome Stability (Multiple Species): Rat - % Remaining after 30 min w/NADPH” value in data set [7] is 4.35%. The “Liver Microsome Stability (Multiple Species): Mouse - % Remaining after 30 min w/NADPH” value in data set [8] was found to be 9.29%. Moreover, the “Liver Microsome Stability (Multiple Species): Human - % Remaining after 30 min w/NADPH” value in data set [9] came to 16%. Also, the “Liver Microsome Stability (Multiple Species): Monkey - % Remaining after 30 min w/NADPH” value in data set [10] came to 8.3%.

As to `O=C(Nc1nc([C@H]2CCCN2c2ccccc2)cs1)c1cccn1CCCCc1nnn[nH]1` [Compound C4, (R)-1-(4-(1H-tetrazol-5-yl)butyl)-N-(4-(1-phenylpyrrolidin-2-yl)thiazol-2-yl)-1H-pyrrole-2-carboxamide], the IC50 in data set [1] was found to be 0.782 µM; in data set [2], 16.5 µM; in [3], 1.54 µM; in data set [4], 1.94 µM. Besides, in data set [2], the “24 hr Dox Inducible TNFaFLGluc 293FRT/TO: TNF/PD1” value is listed as 21.1. Further, the “24 hr Dox Inducible IL2FLGluc 293FRT/TO: IL2/PD1” value in data set [4] is listed as 2.5. Besides, the EC50 in [5] and in data set [6] was more than 25 µM each time. The “Liver Microsome Stability (Multiple Species): Rat - % Remaining after 30 min w/NADPH” value in data set [7] came out at 62.1%. For the same compound, the “Liver Microsome Stability (Multiple Species): Mouse - % Remaining after 30 min w/NADPH” value in data set [8] is 49.1%. In data set [9], the “Liver Microsome Stability (Multiple Species): Human - % Remaining after 30 min w/NADPH” value stood at 96.7%. Further, the “Liver Microsome Stability (Multiple Species): Monkey - % Remaining after 30 min w/NADPH” value in [10] amounted to 70.3%.

With `O=C(Nc1nc([C@H]2CCCN2c2ccccc2)cs1)c1cccn1Cc1ccccc1` [Compound C5, (R)-1-benzyl-N-(4-(1-phenylpyrrolidin-2-yl)thiazol-2-yl)-1H-pyrrole-2-carboxamide], the IC50 in data set [1] is 2.2 µM; in data set [2], more than 25 µM; in data set [3] it was 2.42 µM; in data set [4], 2.88 µM. For the same compound, the “24 hr Dox Inducible TNFaFLGluc 293FRT/TO: TNF/PD1” value in data set [2] is listed as more than 11.4. Further, the “24 hr Dox Inducible IL2FLGluc 293FRT/TO: IL2/PD1” value in [4] came out at 1.3. In addition, the EC50 in [5] and in data set [6] was more than 25 µM throughout. The “Liver Microsome Stability (Multiple Species): Rat - % Remaining after 30 min w/NADPH” value in data set [7] is given as 67.5%. Also, the “Liver Microsome Stability (Multiple Species): Mouse - % Remaining after 30 min w/NADPH” value in [8] turned out to be 65.6%. Besides, the “Liver Microsome Stability (Multiple Species): Human - % Remaining after 30 min w/NADPH” value in data set [9] stood at 87.9%. Further, the “Liver Microsome Stability (Multiple Species): Monkey - % Remaining after 30 min w/NADPH” value in data set [10] was 63%.

As for `N#CC1CC1Cn1cccc1C(=O)Nc1nc([C@H]2CCCN2c2ccccc2)cs1` (stereo partly drawn) [Compound C6, 1-((2-cyanocyclopropyl)methyl)-N-(4-((R)-1-phenylpyrrolidin-2-yl)thiazol-2-yl)-1H-pyrrole-2-carboxamide], the IC50 is 2.6 µM in [1], more than 25 µM in data set [2], 5.22 µM in [3] and 7.29 µM in [4]. Besides, the “24 hr Dox Inducible TNFaFLGluc 293FRT/TO: TNF/PD1” value in data set [2] is more than 9.60. For the same compound, in data set [4], the “24 hr Dox Inducible IL2FLGluc 293FRT/TO: IL2/PD1” value is 2.8. Besides, the EC50 is 11.8 µM in data set [5] and 15.3 µM in [6]. The “Liver Microsome Stability (Multiple Species): Rat - % Remaining after 30 min w/NADPH” value in data set [7] is 8.19%. In addition, the “Liver Microsome Stability (Multiple Species): Mouse - % Remaining after 30 min w/NADPH” value in data set [8] is reported as 31.1%. The “Liver Microsome Stability (Multiple Species): Human - % Remaining after 30 min w/NADPH” value in data set [9] was 32.8%. In addition, in [10], the “Liver Microsome Stability (Multiple Species): Monkey - % Remaining after 30 min w/NADPH” value is given as 7.86%.

For `NC(=O)CCCn1cccc1C(=O)Nc1nc([C@H]2CCCN2c2ccccc2)cs1` [Compound C7], the IC50 in data set [1] is 3.7 µM; in data set [2], more than 25 µM; in [3], 7.97 µM; in [4] it was more than 25 µM. The “24 hr Dox Inducible TNFaFLGluc 293FRT/TO: TNF/PD1” value in data set [2] was more than 6.75. Moreover, the “24 hr Dox Inducible IL2FLGluc 293FRT/TO: IL2/PD1” value in data set [4] is recorded as 6.8. For the same compound, the EC50 in data set [5] and in [6] was more than 25 µM throughout. In data set [7], the “Liver Microsome Stability (Multiple Species): Rat - % Remaining after 30 min w/NADPH” value is recorded as 27.6%. Moreover, the “Liver Microsome Stability (Multiple Species): Mouse - % Remaining after 30 min w/NADPH” value in data set [8] was found to be 26.6%. Further, the “Liver Microsome Stability (Multiple Species): Human - % Remaining after 30 min w/NADPH” value in data set [9] came out at 39.7%. Besides, the “Liver Microsome Stability (Multiple Species): Monkey - % Remaining after 30 min w/NADPH” value in [10] is listed as 10.4%.

On to `N#CCC1(Cn2cccc2C(=O)Nc2nc([C@H]3CCCN3c3ccccc3)cs2)CC1` [Compound C8, (R)-1-((1-(cyanomethyl)cyclopropyl)methyl)-N-(4-(1-phenylpyrrolidin-2-yl)thiazol-2-yl)-1H-pyrrole-2-carboxamide], for which the IC50 is 3.78 µM in data set [1], more than 25 µM in [2], 9.47 µM in [3] and 22.4 µM in [4]. For the same compound, the “24 hr Dox Inducible TNFaFLGluc 293FRT/TO: TNF/PD1” value in data set [2] is more than 6.61. In [4], the “24 hr Dox Inducible IL2FLGluc 293FRT/TO: IL2/PD1” value came out at 5.9. Moreover, the EC50 in data set [5] and in data set [6] was more than 25 µM throughout. Also, the “Liver Microsome Stability (Multiple Species): Rat - % Remaining after 30 min w/NADPH” value in [7] came out at 8.76%. Also, in [8], the “Liver Microsome Stability (Multiple Species): Mouse - % Remaining after 30 min w/NADPH” value was determined as 1.66%. For the same compound, the “Liver Microsome Stability (Multiple Species): Human - % Remaining after 30 min w/NADPH” value in data set [9] was found to be 5.88%. Further, the “Liver Microsome Stability (Multiple Species): Monkey - % Remaining after 30 min w/NADPH” value in [10] was found to be 1.37%.
